Earlier results, collected in patent US20170189402A1, “SOLID DOSAGE FORMS” (AbbVie Inc., priority 2012, published 2017).

How the values were obtained:
[1] = administered orally

bioavailability [1]	solubility	SMILES
over 80%		Nc1ccn([C@@H]2CS[C@H](CO)O2)c(=O)n1 [Lamivudine]
	poorly soluble	Cc1cccc(C)c1OCC(=O)N[C@@H](Cc1ccccc1)[C@@H](O)C[C@H](Cc1ccccc1)NC(=O)[C@H](C(C)C)N1CCCNC1=O [lopinavir]
